The source of these data is patent US8343983B2, “Substituted pyrazolo-pyrimidine compounds” (ArQule, Inc., priority 2009, dated 2013).

The test system of this test is cancer cells. As to the kind of experiment: MTS assay: inhibition of cell growth (formazan absorbance at 492 nm after 72 hours with test compound). As to conditions: inhibition class. It counts as cell-based. The method, boiled down:
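DMEM with 1% FBS; cells seeded at 3000/well and grown 18 h at 37 °C, then exposed to compound for 72 h and to MTS/PMS for 4 h. IC50 is the concentration giving a 50% absorbance drop; grades are % inhibition bands.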
For orientation: Tetrazolium assays rely on reduction of a dye to a coloured formazan, in cell work by metabolically active cells.

The mark [1] stands for this setting: Homo sapiens, DLD-1 cells, read-out: DLD-1, MTS 72 hours at 10 uM.
Setting [2] is: Homo sapiens, KATO III cells, read-out: KATO III, MTS 72 hours at 10 uM.
Where [3] appears, read: Homo sapiens, MDA-MB-231 cells, read-out: MDA-MB-231, MTS 72 hours at 10 uM.
The mark [4] stands for this setting: Homo sapiens, NCI-H1299 cells, read-out: NCI-H1299, MTS 72 hours at 10 uM.
The mark [5] stands for this setting: Homo sapiens, PC-3 cells, read-out: PC-3, MTS 72 hours at 10 uM.
Where [6] appears, read: PACA-2 cells, read-out: PACA-2, MTS 72 hours at 10 uM.

SMILES strings stand for the structures. Read-outs that look alike come from different tables or passages of the source.

In the case of `OCCN1CCN(c2nc3c4c(n[nH]c4n2)CCN3Cc2ccccc2)CC1` [Compound 75, 2-[4-(6-benzyl-2,6,7,8-tetrahydro-1,2,3,5,6-pentaazaacenaphthylen-4-yl)piperazin-1-yl]ethanol], the inhibition at 10 µM reads like this: under setting [1], < 50%; under setting [2], < 50%; under setting [3], < 50%; under setting [4], < 50%; under setting [5], < 50%; under setting [6], < 50%.
For `c1ccc(CN2CCc3n[nH]c4nc(N5CCCCC5)nc2c34)cc1` [Compound 76, 6-benzyl-4-piperidin-1-yl-2,6,7,8-tetrahydro-1,2,3,5,6-pentaazaacenaphthylene], the inhibition at 10 µM by setting is: under setting [1], < 50%; under setting [2], < 50%; under setting [3], < 50%; under setting [4], < 50%; under setting [5], < 50%; under setting [6], < 50%.
Regarding `Cc1cccc(CCNc2nc3c4c(n[nH]c4n2)CCN3Cc2ccccc2)c1` [Compound 77, 6-benzyl-N-[2-(3-methylphenyl)ethyl]-2,6,7,8-tetrahydro-1,2,3,5,6-pentaazaacenaphthylen-4-amine], the inhibition at 10 µM runs as follows: under setting [1], < 50%; under setting [2], < 50%; under setting [3], < 50%; under setting [4], 50 to 79%; under setting [5], < 50%; under setting [6], < 50%.
For the molecule `COCC(C)Nc1nc2c3c(n[nH]c3n1)CCN2Cc1ccccc1` (stereo not drawn) [Compound 78, 6-benzyl-N-(2-methoxy-1-methylethyl)-2,6,7,8-tetrahydro-1,2,3,5,6-pentaazaacenaphthylen-4-amine], the inhibition at 10 µM under setting [1] is < 50%; the inhibition at 10 µM under setting [2] is < 50%; the inhibition at 10 µM under setting [3] was > 79%; the inhibition at 10 µM under setting [4] was < 50%; the inhibition at 10 µM under setting [5] was > 79%; the inhibition at 10 µM under setting [6] was < 50%.
As for `c1ccc(CN2CCc3n[nH]c4nc(NCc5ccc(-c6ccccc6)cc5)nc2c34)cc1` [Compound 79, 6-benzyl-N-(biphenyl-4-ylmethyl)-2,6,7,8-tetrahydro-1,2,3,5,6-pentaazaacenaphthylen-4-amine], the inhibition at 10 µM by setting is: under setting [1], > 79%; under setting [2], 50 to 79%; under setting [3], 50 to 79%; under setting [4], > 79%; under setting [5], < 50%; under setting [6], < 50%.
On to `CN1CCN(c2nc3c4c(n[nH]c4n2)CCN3Cc2ccccc2)CC1` [Compound 80, 6-benzyl-4-(4-methylpiperazin-1-yl)-2,6,7,8-tetrahydro-1,2,3,5,6-pentaazaacenaphthylene], for which the inhibition at 10 µM runs as follows: under setting [1], < 50%; under setting [2], < 50%; under setting [3], < 50%; under setting [4], < 50%; under setting [5], < 50%; under setting [6], < 50%.
For `CN(CCc1ccccc1)c1nc2c3c(n[nH]c3n1)CCN2Cc1ccccc1` [Compound 81, 6-benzyl-N-methyl-N-(2-phenylethyl)-2,6,7,8-tetrahydro-1,2,3,5,6-pentaazaacenaphthylen-4-amine], the inhibition at 10 µM by setting is: under setting [1], < 50%; under setting [2], < 50%; under setting [3], < 50%; under setting [4], < 50%; under setting [5], < 50%; under setting [6], < 50%.
Regarding `COc1cc(CNc2nc3c4c(n[nH]c4n2)CCN3Cc2ccccc2)cc(OC)c1` [Compound 82, 6-benzyl-N-(3,5-dimethoxybenzyl)-2,6,7,8-tetrahydro-1,2,3,5,6-pentaazaacenaphthylen-4-amine], the inhibition at 10 µM is < 50% under setting [1]; < 50% under setting [2]; < 50% under setting [3]; < 50% under setting [4]; < 50% under setting [5]; < 50% under setting [6].
`O=C(CN1CCN(c2nc3c4c(n[nH]c4n2)CCN3Cc2ccccc2)CC1)N1CCCC1` [Compound 83, 6-benzyl-4-[4-(2-oxo-2-pyrrolidin-1-ylethyl)piperazin-1-yl]-2,6,7,8-tetrahydro-1,2,3,5,6-pentaazaacenaphthylene]: the inhibition at 10 µM reads like this: under setting [1], < 50%; under setting [2], < 50%; under setting [3], < 50%; under setting [4], < 50%; under setting [5], < 50%; under setting [6], < 50%.
With `CCCCNc1nc2c3c(n[nH]c3n1)CCN2Cc1ccccc1` [Compound 84, 6-benzyl-N-butyl-2,6,7,8-tetrahydro-1,2,3,5,6-pentaazaacenaphthylen-4-amine], the inhibition at 10 µM under setting [1] was > 79%; the inhibition at 10 µM under setting [2] was > 79%; the inhibition at 10 µM under setting [3] was > 79%; the inhibition at 10 µM under setting [4] was > 79%; the inhibition at 10 µM under setting [5] was > 79%; the inhibition at 10 µM under setting [6] was > 79%.
With `Clc1cncc(Cl)c1N1CCN(c2nc3c4c(n[nH]c4n2)CCN3Cc2ccccc2)CC1` [Compound 85, 6-benzyl-4-[4-(3,5-dichloropyridin-4-yl)piperazin-1-yl]-2,6,7,8-tetrahydro-1,2,3,5,6-pentaazaacenaphthylene], the inhibition at 10 µM was < 50% under setting [1]; < 50% under setting [2]; 50 to 79% under setting [3]; < 50% under setting [4]; > 79% under setting [5]; < 50% under setting [6].
Consider `Cc1ccc(C)c(CCNc2nc3c4c(n[nH]c4n2)CCN3Cc2ccccc2)c1` [Compound 86, 6-benzyl-N-[2-(2,5-dimethylphenyl)ethyl]-2,6,7,8-tetrahydro-1,2,3,5,6-pentaazaacenaphthylen-4-amine], for which the inhibition at 10 µM reads like this: under setting [1], < 50%; under setting [2], 50 to 79%; under setting [3], < 50%; under setting [4], 50 to 79%; under setting [5], < 50%; under setting [6], < 50%.
Take `Cc1ccccc1CCNc1nc2c3c(n[nH]c3n1)CCN2Cc1ccccc1` [Compound 87, 6-benzyl-N-[2-(2-methylphenyl)ethyl]-2,6,7,8-tetrahydro-1,2,3,5,6-pentaazaacenaphthylen-4-amine]: the inhibition at 10 µM runs as follows: under setting [1], < 50%; under setting [2], < 50%; under setting [3], < 50%; under setting [4], 50 to 79%; under setting [5], < 50%; under setting [6], < 50%.
Turning to `c1ccc(CN2CCc3n[nH]c4nc(N5CCN(Cc6cccnc6)CC5)nc2c34)cc1` [Compound 88, 6-benzyl-4-[4-(pyridin-3-ylmethyl)piperazin-1-yl]-2,6,7,8-tetrahydro-1,2,3,5,6-pentaazaacenaphthylene], the inhibition at 10 µM under setting [1] was < 50%; the inhibition at 10 µM under setting [2] is > 79%; the inhibition at 10 µM under setting [3] was > 79%; the inhibition at 10 µM under setting [4] was < 50%; the inhibition at 10 µM under setting [5] is > 79%; the inhibition at 10 µM under setting [6] is < 50%.
For the molecule `CCOC(=O)N1CCN(c2nc3c4c(n[nH]c4n2)CCN3Cc2ccccc2)CC1` [Compound 89, ethyl 4-(6-benzyl-2,6,7,8-tetrahydro-1,2,3,5,6-pentaazaacenaphthylen-4-yl)piperazine-1-carboxylate], the inhibition at 10 µM is < 50% under setting [1]; < 50% under setting [2]; > 79% under setting [3]; < 50% under setting [4]; > 79% under setting [5]; < 50% under setting [6].
Consider `c1ccc(CN2CCc3n[nH]c4nc(NCCCN5CCCCC5)nc2c34)cc1` [Compound 90, 6-benzyl-N-(3-piperidin-1-ylpropyl)-2,6,7,8-tetrahydro-1,2,3,5,6-pentaazaacenaphthylen-4-amine], for which the inhibition at 10 µM under setting [1] is > 79%; the inhibition at 10 µM under setting [2] was > 79%; the inhibition at 10 µM under setting [3] was > 79%; the inhibition at 10 µM under setting [4] was > 79%; the inhibition at 10 µM under setting [5] was > 79%; the inhibition at 10 µM under setting [6] is > 79%.
On to `CN(C)CCCNc1nc2c3c(n[nH]c3n1)CCN2Cc1ccccc1` [Compound 91, N′-(6-benzyl-2,6,7,8-tetrahydro-1,2,3,5,6-pentaazaacenaphthylen-4-yl)-N,N-dimethylpropane-1,3-diamine], for which the inhibition at 10 µM was 50 to 79% under setting [1]; > 79% under setting [2]; > 79% under setting [3]; < 50% under setting [4]; > 79% under setting [5]; < 50% under setting [6].
As to `c1ccc(CN2CCc3n[nH]c4nc(N5CCN(Cc6ccncc6)CC5)nc2c34)cc1` [Compound 92, 6-benzyl-4-[4-(pyridin-4-ylmethyl)piperazin-1-yl]-2,6,7,8-tetrahydro-1,2,3,5,6-pentaazaacenaphthylene], the inhibition at 10 µM is, setting by setting: under setting [1], < 50%; under setting [2], < 50%; under setting [3], < 50%; under setting [4], < 50%; under setting [5], < 50%; under setting [6], < 50%.
Take `COc1cccc(CNc2nc3c4c(n[nH]c4n2)CCN3Cc2ccccc2)c1` [Compound 93, 6-benzyl-N-(3-methoxybenzyl)-2,6,7,8-tetrahydro-1,2,3,5,6-pentaazaacenaphthylen-4-amine]: the inhibition at 10 µM runs as follows: under setting [1], < 50%; under setting [2], < 50%; under setting [3], < 50%; under setting [4], < 50%; under setting [5], < 50%; under setting [6], < 50%.
